Source: ChEMBL document CHEMBL1201862, “PubChem BioAssay data set” (2004)
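Where inhibition never reached the appropriate level, the endpoint shown equals the highest concentration tested. Otherwise, values were interpolated linearly from a five-concentration, 48-hour dose response in 96-well plates. GI50 marks 50% less growth.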 Activity calls are given as the source filed them. No stated cut-off is given here; in the data, active = GI50 up to about 1.1 µM and inactive = higher.

Tests used:
Experiment in all cases: NCI-60 cell line screen, 48 h
MDA-MB-435 = tested on: MDA-MB-435
BT-549 = tested on: BT-549
SF-295 = tested on: SF-295
MDA-N = tested on: MDA-N
HCC 2998 = tested on: HCC 2998
SW-620 = tested on: SW-620
SN12C = tested on: SN12C
TK-10 = tested on: TK-10
SF-539 = tested on: SF-539
SR = tested on: SR
PC-3 = tested on: PC-3
UACC-257 = tested on: UACC-257
NCI-H23 = tested on: NCI-H23
RXF 393 = tested on: RXF 393
HOP-92 = tested on: HOP-92
CAKI-1 = tested on: CAKI-1
T47D = tested on: T47D
MDA-MB-231 = tested on: MDA-MB-231
OVCAR-3 = tested on: OVCAR-3
UACC-62 = tested on: UACC-62
IGROV-1 = tested on: IGROV-1
A498 = tested on: A498
KM12 = tested on: KM12
U-251 = tested on: U-251
RPMI-8226 = tested on: RPMI-8226
NCI-H226 = tested on: NCI-H226
COLO 205 = tested on: COLO 205
MOLT-4 = tested on: MOLT-4
SK-MEL-2 = tested on: SK-MEL-2
OVCAR-4 = tested on: OVCAR-4
CCRF-CEM = tested on: CCRF-CEM
HT-29 = tested on: HT-29
NCI/ADR-RES = tested on: NCI/ADR-RES
Hs-578T = tested on: Hs-578T
SK-OV-3 = tested on: SK-OV-3
ACHN = tested on: ACHN
DU-145 = tested on: DU-145
MCF7 = tested on: MCF7
NCI-H460 = tested on: NCI-H460
HOP-62 = tested on: HOP-62
UO-31 = tested on: UO-31
SF-268 = tested on: SF-268
SK-MEL-28 = tested on: SK-MEL-28
EKVX = tested on: EKVX
HCT-15 = tested on: HCT-15
SNB-75 = tested on: SNB-75
786-0 = tested on: 786-0
HCT-116 = tested on: HCT-116
LOX IMVI = tested on: LOX IMVI
K562 = tested on: K562
SK-MEL-5 = tested on: SK-MEL-5
SNB-19 = tested on: SNB-19
NCI-H522 = tested on: NCI-H522
Malme-3M = tested on: Malme-3M
OVCAR-5 = tested on: OVCAR-5
HL-60 = tested on: HL-60
OVCAR-8 = tested on: OVCAR-8
M14 = tested on: M14
A549 = tested on: A549

For `COC(OC)C(O)C1OC=CC1n1cnc2c(N)ncnc21` (centres undefined), the GI50 (MDA-MB-435) was > 100 µM (inactive), the GI50 (BT-549) was > 100 µM (inactive) and the GI50 (SF-295) was > 100 µM (inactive). For the same molecule, the GI50 (MDA-N) was > 100 µM (inactive), the GI50 (HCC 2998) was > 100 µM (inactive) and the GI50 (SW-620) was > 100 µM (inactive). The GI50 (SN12C) was > 100 µM (inactive), the GI50 (TK-10) was > 100 µM (inactive) and the GI50 (SF-539) was > 100 µM (inactive). The GI50 (SR) was > 100 µM (inactive), the GI50 (PC-3) was > 100 µM (inactive) and the GI50 (UACC-257) was > 100 µM (inactive). For the same molecule, the GI50 (NCI-H23) was > 100 µM (inactive), the GI50 (RXF 393) was 13 µM (inactive) and the GI50 (HOP-92) was > 100 µM (inactive). For the same molecule, the GI50 (CAKI-1) was > 100 µM (inactive), the GI50 (T47D) was > 100 µM (inactive) and the GI50 (MDA-MB-231) was > 100 µM (inactive). For the same molecule, the GI50 (OVCAR-3) was > 100 µM (inactive), the GI50 (UACC-62) was > 100 µM (inactive) and the GI50 (IGROV-1) was > 100 µM (inactive). For the same molecule, the GI50 (A498) was > 100 µM (inactive), the GI50 (KM12) was > 100 µM (inactive) and the GI50 (U-251) was > 100 µM (inactive). For the same molecule, the GI50 (RPMI-8226) was > 100 µM (inactive), the GI50 (NCI-H226) was > 100 µM (inactive) and the GI50 (COLO 205) was > 100 µM (inactive). The GI50 (MOLT-4) was > 100 µM (inactive), the GI50 (SK-MEL-2) was > 100 µM (inactive) and the GI50 (OVCAR-4) was > 100 µM (inactive). The GI50 (CCRF-CEM) was > 100 µM (inactive), the GI50 (HT-29) was > 100 µM (inactive) and the GI50 (NCI/ADR-RES) was > 100 µM (inactive). The GI50 (Hs-578T) was > 100 µM (inactive), the GI50 (SK-OV-3) was > 100 µM (inactive) and the GI50 (ACHN) was > 100 µM (inactive). For the same molecule, the GI50 (DU-145) was > 100 µM (inactive), the GI50 (MCF7) was > 100 µM (inactive) and the GI50 (NCI-H460) was > 100 µM (inactive). For the same molecule, the GI50 (HOP-62) was > 100 µM (inactive), the GI50 (UO-31) was 0.792 µM (active) and the GI50 (SF-268) was > 100 µM (inactive). The GI50 (SK-MEL-28) was > 100 µM (inactive), the GI50 (EKVX) was > 100 µM (inactive) and the GI50 (HCT-15) was over 100 µM. For the same molecule, the GI50 (SNB-75) was 18.3 µM (inactive), the GI50 (786-0) was > 100 µM (inactive) and the GI50 (HCT-116) was > 100 µM (inactive). For the same molecule, the GI50 (LOX IMVI) was > 100 µM (inactive), the GI50 (K562) was > 100 µM (inactive) and the GI50 (SK-MEL-5) was > 100 µM (inactive).
`COc1ccc(OC)c2c1-c1nnnn1CCC2(C)C` was tested, and the GI50 (MDA-MB-435) was > 100 µM (inactive), the GI50 (BT-549) was > 100 µM (inactive) and the GI50 (SNB-19) was > 100 µM (inactive). For the same molecule, the GI50 (SF-295) was > 100 µM (inactive), the GI50 (MDA-N) was > 100 µM (inactive) and the GI50 (HCC 2998) was > 100 µM (inactive). The GI50 (SW-620) was > 100 µM (inactive), the GI50 (NCI-H522) was > 100 µM (inactive) and the GI50 (SN12C) was > 100 µM (inactive). The GI50 (TK-10) was > 100 µM (inactive), the GI50 (SF-539) was > 100 µM (inactive) and the GI50 (SR) was > 100 µM (inactive). For the same molecule, the GI50 (PC-3) was > 100 µM (inactive), the GI50 (UACC-257) was > 100 µM (inactive) and the GI50 (NCI-H23) was > 100 µM (inactive). The GI50 (RXF 393) was > 100 µM (inactive), the GI50 (HOP-92) was > 100 µM (inactive) and the GI50 (T47D) was > 100 µM (inactive). For the same molecule, the GI50 (MDA-MB-231) was > 100 µM (inactive), the GI50 (Malme-3M) was > 100 µM (inactive) and the GI50 (OVCAR-3) was > 100 µM (inactive). For the same molecule, the GI50 (OVCAR-5) was > 100 µM (inactive), the GI50 (UACC-62) was > 100 µM (inactive) and the GI50 (IGROV-1) was > 100 µM (inactive). The GI50 (A498) was > 100 µM (inactive), the GI50 (KM12) was > 100 µM (inactive) and the GI50 (U-251) was > 100 µM (inactive). The GI50 (RPMI-8226) was > 100 µM (inactive), the GI50 (NCI-H226) was > 100 µM (inactive) and the GI50 (COLO 205) was > 100 µM (inactive). The GI50 (MOLT-4) was > 100 µM (inactive), the GI50 (SK-MEL-2) was > 100 µM (inactive) and the GI50 (OVCAR-4) was > 100 µM (inactive). For the same molecule, the GI50 (CCRF-CEM) was > 100 µM (inactive), the GI50 (HL-60) was > 100 µM (inactive) and the GI50 (HT-29) was > 100 µM (inactive). For the same molecule, the GI50 (NCI/ADR-RES) was > 100 µM (inactive), the GI50 (Hs-578T) was > 100 µM (inactive) and the GI50 (SK-OV-3) was > 100 µM (inactive). The GI50 (OVCAR-8) was > 100 µM (inactive), the GI50 (ACHN) was > 100 µM (inactive) and the GI50 (DU-145) was > 100 µM (inactive). For the same molecule, the GI50 (MCF7) was > 100 µM (inactive), the GI50 (NCI-H460) was > 100 µM (inactive) and the GI50 (HOP-62) was > 100 µM (inactive). The GI50 (UO-31) was > 100 µM (inactive), the GI50 (SF-268) was > 100 µM (inactive) and the GI50 (SK-MEL-28) was > 100 µM (inactive). The GI50 (EKVX) was > 100 µM (inactive), the GI50 (HCT-15) was over 100 µM and the GI50 (SNB-75) was > 100 µM (inactive). The GI50 (786-0) was > 100 µM (inactive), the GI50 (HCT-116) was > 100 µM (inactive) and the GI50 (M14) was > 100 µM (inactive). The GI50 (LOX IMVI) was > 100 µM (inactive) and the GI50 (K562) was > 100 µM (inactive).
In the case of `COC(=O)/C=C\Sc1ccn(/C=C\C(=O)OC)c(=S)n1`, the GI50 (MDA-MB-435) is reported as 23.1 µM (inactive), the GI50 (BT-549) is reported as 22.9 µM (inactive) and the GI50 (SNB-19) is reported as 21.8 µM (inactive). The GI50 (MDA-N) was 27.3 µM (inactive), the GI50 (HCC 2998) was 37.1 µM (inactive) and the GI50 (SW-620) was 26 µM (inactive). The GI50 (NCI-H522) was 16.1 µM (inactive), the GI50 (SN12C) was 23.6 µM (inactive) and the GI50 (TK-10) was 27.9 µM (inactive). For the same molecule, the GI50 (SF-539) was 18.4 µM (inactive), the GI50 (SR) was 13.7 µM (inactive) and the GI50 (PC-3) was 19.1 µM (inactive). The GI50 (UACC-257) was 28.6 µM (inactive), the GI50 (NCI-H23) was 25.8 µM (inactive) and the GI50 (RXF 393) was 10.5 µM (inactive). The GI50 (HOP-92) was 18.5 µM (inactive), the GI50 (CAKI-1) was 16.6 µM (inactive) and the GI50 (A549) was 22.1 µM (inactive). For the same molecule, the GI50 (T47D) was 18.4 µM (inactive), the GI50 (MDA-MB-231) was 26.1 µM (inactive) and the GI50 (Malme-3M) was 22.4 µM (inactive). The GI50 (OVCAR-3) was 13.8 µM (inactive), the GI50 (OVCAR-5) was 38.5 µM (inactive) and the GI50 (IGROV-1) was 16.9 µM (inactive). For the same molecule, the GI50 (A498) was 20.2 µM (inactive), the GI50 (KM12) was 12.4 µM (inactive) and the GI50 (U-251) was 19.9 µM (inactive). The GI50 (RPMI-8226) was 46 µM (inactive), the GI50 (COLO 205) was 66.5 µM (inactive) and the GI50 (SK-MEL-2) was 19.9 µM (inactive). The GI50 (OVCAR-4) was 16.9 µM (inactive), the GI50 (CCRF-CEM) was > 100 µM (inactive) and the GI50 (HL-60) was > 100 µM (inactive). The GI50 (HT-29) was 22.2 µM (inactive), the GI50 (NCI/ADR-RES) was 19.6 µM (inactive) and the GI50 (Hs-578T) was 25.5 µM (inactive). The GI50 (OVCAR-8) was 19.2 µM (inactive), the GI50 (ACHN) was 18.2 µM (inactive) and the GI50 (DU-145) was > 100 µM (inactive). The GI50 (MCF7) was 14.3 µM (inactive), the GI50 (NCI-H460) was > 10 µM (inactive) and the GI50 (HOP-62) was 17.1 µM (inactive). The GI50 (UO-31) was 25.1 µM (inactive), the GI50 (SF-268) was 24.4 µM (inactive) and the GI50 (SK-MEL-28) was 29.9 µM (inactive). The GI50 (EKVX) was 26.2 µM (inactive), the GI50 (HCT-15) was 16.7 µM and the GI50 (SNB-75) was 22.9 µM (inactive). The GI50 (M14) was 49.9 µM (inactive), the GI50 (LOX IMVI) was 2.77 µM (inactive) and the GI50 (K562) was 38.5 µM (inactive). For the same molecule, the GI50 (SK-MEL-5) was 24.1 µM (inactive).
